Source: the NIST ThermoML archive (doi:10.1021/je501118w)
Values joined by “and” are separate entries in the source; they are usually repeats but may differ in a detail not shown here. Equal entries are not always repeated.

Details: Liquid, Vibrating tube method

CCCCCC[n+]1ccn(C)c1.O=S(=O)([N-]S(=O)(=O)C(F)(F)F)C(F)(F)F
Details	mass density
273.15 K, 101.33 kPa	1395.63 kg/m3 and 1395.14 kg/m3 and 1395.28 kg/m3
278.15 K, 101.33 kPa	1390.37 kg/m3 and 1390.93 kg/m3
283.15 K, 101.33 kPa	1385.72 kg/m3 and 1385.89 kg/m3 and 1386.23 kg/m3
288.15 K, 101.33 kPa	1381.16 kg/m3 and 1381.54 kg/m3
288.15 K, 14950 kPa	1393.3 kg/m3
288.15 K, 20180 kPa	1396.8 kg/m3
288.15 K, 25080 kPa	1400 kg/m3
288.15 K, 30100 kPa	1403.2 kg/m3
288.15 K, 40120 kPa	1409.5 kg/m3
288.15 K, 49940 kPa	1415.3 kg/m3
288.15 K, 75500 kPa	1429.5 kg/m3
288.15 K, 124700 kPa	1453.9 kg/m3
288.15 K, 174600 kPa	1474.9 kg/m3
288.16 K, 100000 kPa	1442.2 kg/m3
288.16 K, 150500 kPa	1465 kg/m3
293.15 K, 101.33 kPa	1376.86 kg/m3 [middle of 4 runs]
298.15 K, 101.33 kPa	1372.17 kg/m3 [middle of 4 runs]
303.15 K, 101.33 kPa	1367.48 kg/m3 and 1367.61 kg/m3
313.15 K, 101.33 kPa	1358.37 kg/m3 and 1358.51 kg/m3 and 1358.44 kg/m3
323.15 K, 101.33 kPa	1349.3 kg/m3 and 1349.43 kg/m3 and 1349.35 kg/m3
333.15 K, 101.33 kPa	1340.33 kg/m3 and 1340.27 kg/m3 and 1340.4 kg/m3
343.15 K, 101.33 kPa	1331.36 kg/m3 and 1331.29 kg/m3 and 1331.38 kg/m3
353.15 K, 101.33 kPa	1322.46 kg/m3 and 1322.34 kg/m3 and 1322.43 kg/m3
363.15 K, 101.33 kPa	1313.62 kg/m3 and 1313.44 kg/m3 and 1313.52 kg/m3

CCCC[n+]1ccn(C)c1.O=S(=O)([N-]S(=O)(=O)C(F)(F)F)C(F)(F)F
Details	mass density
273.15 K, 100 kPa	1460.67 kg/m3
278.15 K, 100 kPa	1455.84 kg/m3
283.15 K, 100 kPa	1451.04 kg/m3
288.15 K, 100 kPa	1446.23 kg/m3
288.15 K, 10320 kPa	1453.8 kg/m3
288.15 K, 15130 kPa	1457.1 kg/m3
288.15 K, 20090 kPa	1460.4 kg/m3
288.15 K, 24820 kPa	1463.6 kg/m3
288.15 K, 25120 kPa	1463.3 kg/m3
288.15 K, 30620 kPa	1467.3 kg/m3
288.15 K, 39770 kPa	1473 kg/m3
288.15 K, 49640 kPa	1478.8 kg/m3
288.15 K, 50970 kPa	1479.2 kg/m3
288.15 K, 76000 kPa	1493.8 kg/m3
288.15 K, 100500 kPa	1506 kg/m3
288.15 K, 124500 kPa	1517.8 kg/m3
288.15 K, 150400 kPa	1528.9 kg/m3
288.15 K, 151000 kPa	1529.4 kg/m3
288.15 K, 175100 kPa	1539.3 kg/m3
288.15 K, 199900 kPa	1548.8 kg/m3
288.16 K, 99600 kPa	1506 kg/m3
293.15 K, 100 kPa	1441.43 kg/m3 and 1441.42 kg/m3
298.15 K, 100 kPa	1436.64 kg/m3 and 1436.6 kg/m3
298.15 K, 9760 kPa	1444.2 kg/m3
298.15 K, 15200 kPa	1448.1 kg/m3
298.15 K, 24770 kPa	1454.6 kg/m3
298.15 K, 24930 kPa	1454.4 kg/m3
298.15 K, 39560 kPa	1464.3 kg/m3
298.15 K, 50280 kPa	1470.6 kg/m3
298.15 K, 100700 kPa	1498.7 kg/m3
298.15 K, 124500 kPa	1510.5 kg/m3
298.15 K, 150300 kPa	1522.1 kg/m3
298.15 K, 174400 kPa	1532.5 kg/m3
298.15 K, 200400 kPa	1543.2 kg/m3 and 1542.9 kg/m3
298.15 K, 249600 kPa	1561.5 kg/m3
298.16 K, 20120 kPa	1451.5 kg/m3
298.16 K, 30400 kPa	1458.4 kg/m3
298.16 K, 50110 kPa	1470.9 kg/m3
298.16 K, 75200 kPa	1485.4 kg/m3
298.16 K, 100200 kPa	1498.6 kg/m3
298.16 K, 150100 kPa	1522.3 kg/m3
298.16 K, 225500 kPa	1553 kg/m3
303.15 K, 100 kPa	1431.86 kg/m3
313.15 K, 100 kPa	1422.34 kg/m3
323.15 K, 100 kPa	1412.87 kg/m3 and 1412.85 kg/m3
323.15 K, 15150 kPa	1424.4 kg/m3
323.15 K, 24310 kPa	1431.5 kg/m3
323.15 K, 24670 kPa	1431.2 kg/m3
323.15 K, 30100 kPa	1435.1 kg/m3
323.15 K, 39780 kPa	1441.8 kg/m3
323.15 K, 49910 kPa	1448.4 kg/m3
323.15 K, 50470 kPa	1449.4 kg/m3
323.15 K, 75400 kPa	1463.9 kg/m3
323.15 K, 99600 kPa	1478.1 kg/m3
323.15 K, 100500 kPa	1478 kg/m3
323.15 K, 124700 kPa	1490.3 kg/m3
323.15 K, 149600 kPa	1502.1 kg/m3 and 1502.8 kg/m3
323.15 K, 174600 kPa	1513 kg/m3
323.15 K, 200000 kPa	1524.7 kg/m3
323.15 K, 225000 kPa	1533.7 kg/m3
323.15 K, 251500 kPa	1543 kg/m3
323.16 K, 10250 kPa	1420.7 kg/m3
323.16 K, 20180 kPa	1428.1 kg/m3
323.16 K, 201000 kPa	1524.3 kg/m3
333.15 K, 100 kPa	1403.48 kg/m3
343.15 K, 100 kPa	1394.15 kg/m3
348.15 K, 10050 kPa	1397.8 kg/m3
348.15 K, 15200 kPa	1402 kg/m3
348.15 K, 20220 kPa	1405.9 kg/m3
348.15 K, 24790 kPa	1410.4 kg/m3
348.15 K, 24830 kPa	1409.3 kg/m3
348.15 K, 30300 kPa	1413.4 kg/m3
348.15 K, 39980 kPa	1420.5 kg/m3
348.15 K, 49890 kPa	1427.3 kg/m3
348.15 K, 50730 kPa	1429.7 kg/m3
348.15 K, 75400 kPa	1443.5 kg/m3
348.15 K, 100300 kPa	1460.9 kg/m3
348.15 K, 100500 kPa	1458.5 kg/m3
348.15 K, 125100 kPa	1471.9 kg/m3
348.15 K, 150000 kPa	1484.2 kg/m3
348.15 K, 150500 kPa	1487.2 kg/m3
348.15 K, 174700 kPa	1495.6 kg/m3
348.15 K, 199200 kPa	1509.2 kg/m3
348.15 K, 200600 kPa	1506.6 kg/m3
348.15 K, 225700 kPa	1517 kg/m3
348.15 K, 250700 kPa	1526.9 kg/m3
353.15 K, 100 kPa	1384.88 kg/m3
363.15 K, 100 kPa	1375.67 kg/m3
